Assay results: US4604236A, “Calcitonin analogs” (priority 1985, dated 1986)

Experiments:
[1] = literature values; cited from earlier work
[2] = test system: serum calcium concentration; assay: Biological assay of calcitonin analogs in vivo: reduction of serum calcium concentration versus salmon calcitonin standard, 2×2 parallel line assay; design: species or system Rats; settings: standard used in the assay, independently determined
Method: The biological potency of des-13-serine-salmon calcitonin was determined by comparing the reduction of serum calcium concentration which followed administration by graded doses of des-Ser^13 -SCT and synthetic salmon calcitonin standard. Rats were divided into four groups of seven animals, and each group was assigned at random to a dose of standard or test solution. Low and high doses were chosen from the linear portion of the dose-response curve. For the salmon calcitonin standard, the values were 0.7 and 2.1 ng. peptide/100 g. body weight (BW). This dose approximates 3 and 9 MU/100 g. BW. Peptides were given by subcutaneous injection (0.2 ml/100 g. BW) and blood was withdrawn 1 hour later for serum calcium determination. Sera are processed and analyzed within two hours of collection. […]. Results were analyzed by a 2×2 parallel line assay [Gaddum, J. H., J. Pharm. Pharmacol., 6, 345 (1953)]. The standard salmon calcitonin used was independently determined to contain greater than 4,000 IU/mg. des-Ser^13 -SCT assayed at 4650 IU/mg.

Molecule	hypocalcemic potency [1]	potency content of the standard salmon calcitonin [2]
eel calcitonin [synthetic eel calcitonin]	around 4300 IU/mg.	–
(1,7-α-L-aminosuberic acid)eel calcitonin	about 3400 IU/mg.	–
CC(C)C[C@H](NC(=O)[C@H](CCCCN)NC(=O)CNC(=O)[C@H](CC(C)C)NC(=O)[C@@H](NC(=O)[C@@H]1CSSC[C@H](N)C(=O)N[C@@H](CO)C(=O)N[C@@H](CC(N)=O)C(=O)N[C@@H](CC(C)C)C(=O)N[C@@H](CO)C(=O)N[C@@H]([C@@H](C)O)C(=O)N1)C(C)C)C(=O)N[C@@H](CO)C(=O)N[C@@H](CCC(N)=O)C(=O)N[C@@H](CCC(=O)O)C(=O)N[C@@H](CC(C)C)C(=O)N[C@@H](Cc1c[nH]cn1)C(=O)N[C@@H](CCCCN)C(=O)N[C@@H](CC(C)C)C(=O)N[C@@H](CCC(N)=O)C(=O)N[C@H](C(=O)N[C@@H](Cc1ccc(O)cc1)C(=O)N1CCC[C@H]1C(=O)N[C@@H](CCCNC(=N)N)C(=O)N[C@H](C(=O)N[C@@H](CC(N)=O)C(=O)N[C@H](C(=O)NCC(=O)N[C@@H](CO)C(=O)NCC(=O)N[C@H](C(=O)N1CCC[C@H]1C(N)=O)[C@@H](C)O)[C@@H](C)O)[C@@H](C)O)[C@@H](C)O [standard salmon calcitonin, salmon calcitonin]	–	greater than 4,000 IU/mg
